{
  "source": "paper PMC8434884",
  "about": "(Journal of medicinal chemistry, 2020)",
  "key": {"[1]": {"target": "T1, human 5-HT2CR (unedited INI isoform) (Homo sapiens, UniProt P28335)", "T1 sequence (P28335 33-458)": "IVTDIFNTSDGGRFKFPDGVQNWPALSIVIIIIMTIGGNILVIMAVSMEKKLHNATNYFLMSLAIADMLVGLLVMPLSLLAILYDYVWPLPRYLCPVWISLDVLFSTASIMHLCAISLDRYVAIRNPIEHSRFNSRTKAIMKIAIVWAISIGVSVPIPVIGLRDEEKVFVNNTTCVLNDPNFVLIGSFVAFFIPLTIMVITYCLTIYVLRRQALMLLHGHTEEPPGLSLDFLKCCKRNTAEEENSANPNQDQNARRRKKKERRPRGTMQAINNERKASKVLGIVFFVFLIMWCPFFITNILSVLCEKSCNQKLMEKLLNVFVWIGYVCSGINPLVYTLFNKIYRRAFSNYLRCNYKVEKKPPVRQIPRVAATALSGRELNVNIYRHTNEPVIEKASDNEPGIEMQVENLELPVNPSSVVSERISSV", "details": "1 nM, 5-HT-induced Cai2+ release, h5-HT2CR-CHO cells"}, "[2]": {"target": "T1, human 5-HT2CR (unedited INI isoform)", "details": "cited from earlier work"}, "D3": {"target": "D3 (Homo sapiens, UniProt P35462)", "sequence (P35462 whole entry)": "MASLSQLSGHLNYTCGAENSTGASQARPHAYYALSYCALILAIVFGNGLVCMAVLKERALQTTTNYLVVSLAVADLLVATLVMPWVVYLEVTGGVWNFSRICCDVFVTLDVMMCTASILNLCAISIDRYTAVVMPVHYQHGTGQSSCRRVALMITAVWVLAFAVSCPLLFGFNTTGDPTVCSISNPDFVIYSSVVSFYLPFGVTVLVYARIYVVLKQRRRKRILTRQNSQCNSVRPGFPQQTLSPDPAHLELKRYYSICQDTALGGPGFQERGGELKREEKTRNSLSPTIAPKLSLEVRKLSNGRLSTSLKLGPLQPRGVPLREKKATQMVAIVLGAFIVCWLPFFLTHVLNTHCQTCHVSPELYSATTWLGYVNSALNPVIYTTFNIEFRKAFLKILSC", "details": "10 μM; cited from earlier work"}, "DAT": {"target": "DAT (Homo sapiens, UniProt Q01959)", "sequence (Q01959 whole entry)": "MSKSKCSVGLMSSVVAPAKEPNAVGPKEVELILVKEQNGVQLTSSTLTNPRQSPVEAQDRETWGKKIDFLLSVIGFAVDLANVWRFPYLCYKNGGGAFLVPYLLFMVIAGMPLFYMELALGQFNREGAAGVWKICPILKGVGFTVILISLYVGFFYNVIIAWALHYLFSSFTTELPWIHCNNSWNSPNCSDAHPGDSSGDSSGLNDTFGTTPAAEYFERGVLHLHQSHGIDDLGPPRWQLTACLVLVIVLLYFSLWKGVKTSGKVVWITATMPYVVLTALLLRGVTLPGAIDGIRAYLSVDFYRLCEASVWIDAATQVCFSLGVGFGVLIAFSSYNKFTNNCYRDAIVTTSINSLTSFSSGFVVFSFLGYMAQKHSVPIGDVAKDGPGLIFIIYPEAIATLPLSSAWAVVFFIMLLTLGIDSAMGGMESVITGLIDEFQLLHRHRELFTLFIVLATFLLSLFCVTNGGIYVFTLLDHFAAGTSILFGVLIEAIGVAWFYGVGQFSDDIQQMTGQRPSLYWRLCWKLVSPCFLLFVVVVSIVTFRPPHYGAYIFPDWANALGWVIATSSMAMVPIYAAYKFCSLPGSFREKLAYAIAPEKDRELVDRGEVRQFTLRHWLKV", "details": "10 μM; cited from earlier work"}, "α 2A": {"target": "T2, α 2A (Homo sapiens, UniProt P08913)", "T2 sequence (P08913 1-465)": "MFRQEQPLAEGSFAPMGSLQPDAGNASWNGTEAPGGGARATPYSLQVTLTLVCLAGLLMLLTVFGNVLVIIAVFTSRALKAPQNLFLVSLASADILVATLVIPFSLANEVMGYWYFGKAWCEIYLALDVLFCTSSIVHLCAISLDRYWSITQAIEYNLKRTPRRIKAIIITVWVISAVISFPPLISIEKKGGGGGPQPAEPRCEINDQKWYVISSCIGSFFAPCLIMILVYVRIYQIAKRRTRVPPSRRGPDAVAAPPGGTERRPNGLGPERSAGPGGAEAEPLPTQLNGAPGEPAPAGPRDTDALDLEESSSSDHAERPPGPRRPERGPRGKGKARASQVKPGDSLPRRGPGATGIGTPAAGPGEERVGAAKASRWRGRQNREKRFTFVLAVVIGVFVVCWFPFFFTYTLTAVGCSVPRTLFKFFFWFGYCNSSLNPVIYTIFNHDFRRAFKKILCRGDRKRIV", "details": "10 μM; cited from earlier work"}, "α 2B": {"target": "T3, α 2B (Homo sapiens, UniProt P18089)", "T3 sequence (P18089 1-450)": "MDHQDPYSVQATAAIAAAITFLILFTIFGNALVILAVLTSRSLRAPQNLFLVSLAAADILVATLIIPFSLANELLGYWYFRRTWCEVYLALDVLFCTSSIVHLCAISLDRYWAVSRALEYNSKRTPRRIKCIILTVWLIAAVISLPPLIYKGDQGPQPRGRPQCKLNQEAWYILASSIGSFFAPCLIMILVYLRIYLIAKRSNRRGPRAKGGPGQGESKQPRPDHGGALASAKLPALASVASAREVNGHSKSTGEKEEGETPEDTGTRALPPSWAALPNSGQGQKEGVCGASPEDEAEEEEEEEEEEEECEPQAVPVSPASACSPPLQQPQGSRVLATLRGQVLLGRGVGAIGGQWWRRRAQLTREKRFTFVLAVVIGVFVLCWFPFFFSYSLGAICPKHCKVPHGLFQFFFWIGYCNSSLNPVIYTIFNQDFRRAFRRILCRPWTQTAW", "details": "10 μM; cited from earlier work"}, "rats [3]": {"tested_on": "rats", "details": "cited from earlier work"}, "rats [4]": {"tested_on": "rats", "details": "cited from earlier work", "remark": "listed apart in the source"}, "male Sprague–Dawley rats [5]": {"tested_on": "male Sprague–Dawley rats", "experiment": "WAY163909 versus saline two-lever drug discrimination assay", "format": "in vivo, rat"}, "male Sprague–Dawley rats [6]": {"tested_on": "male Sprague–Dawley rats", "details": "previous study; cited from earlier work"}},
  "data": [
    {"smiles": "O=C(NC(CO)CO)[C@@H]1C[C@H](c2ccccc2)CCN1", "note": "(racemic) [Compound 14, (2,4-cis)-N-(1,3-Dihydroxypropan-2-yl)-4-phenylpiperidine-2-carboxamide]", "values": [
      {"measurement": "5-HT2CR positive allosteric modulator activity (in words)", "setting": "[1]", "result": "did promote PAM activity"}
    ]},
    {"smiles": "O=C(NC(CO)CO)[C@@H]1C[C@H](C2CCCCC2)CCN1", "note": "(racemic) [Compound 15, (2,4-cis)-4-Cyclohexyl-N-(1,3-dihydroxypropan-2-yl)piperidine-2-carboxamide]", "values": [
      {"measurement": "5-HT2CR positive allosteric modulator activity (in words)", "setting": "[1]", "result": "did not result in positive allosteric effects"}
    ]},
    {"smiles": "O=C(NCCN1CCOCC1)[C@@H]1C[C@H](c2ccccc2)CCN1", "note": "(racemic) [Compound 16, (2,4-cis)-N-(2-Morpholinoethyl)-4-phenylpiperidine-2-carboxamide]", "values": [
      {"measurement": "5-HT2CR positive allosteric modulator activity (in words)", "setting": "[1]", "result": "did not result in positive allosteric effects"}
    ]},
    {"smiles": "O=C(NCCN1CCOCC1)[C@@H]1C[C@H](C2CCCCC2)CCN1", "note": "(racemic) [Compound 17, (2,4-cis)-4-Cyclohexyl-N-(2-morpholinoethyl)piperidine-2-carboxamide]", "values": [
      {"measurement": "5-HT2CR positive allosteric modulator activity (in words)", "setting": "[1]", "result": "did not result in positive allosteric effects"}
    ]},
    {"smiles": "O=C(NCCN1CCOCC1)[C@@H]1C[C@H](CCC2CCCCC2)CCN1", "note": "(racemic) [Compound 34, (2,4-cis)-4-(2-Cyclohexylethyl)-N-(2-morpholinoethyl)piperidine-2-carboxamide]", "values": [
      {"measurement": "5-HT2CR positive allosteric modulator activity (in words)", "setting": "[1]", "result": "did not produce PAM effects"}
    ]},
    {"smiles": "O=C(NCCCN1CCOCC1)[C@@H]1C[C@H](CCC2CCCCC2)CCN1", "note": "(racemic) [Compound 35, (2,4-cis)-4-(2-Cyclohexylethyl)-N-(3-morpholinopropyl)-piperidine-2-carboxamide]", "values": [
      {"measurement": "5-HT2CR positive allosteric modulator activity (in words)", "setting": "[1]", "result": "did produce PAM effects"}
    ]},
    {"smiles": "O=C(NCCN1CCOCC1)[C@@H]1C[C@H](CCc2ccccc2)CCN1", "note": "(racemic) [Compound 36, (2,4-cis)-N-(2-Morpholinoethyl)-4-phenethylpiperidine-2-carboxamide]", "values": [
      {"measurement": "5-HT2CR positive allosteric modulator activity (in words)", "setting": "[1]", "result": "did not produce PAM effects"}
    ]},
    {"smiles": "O=C(NCCCN1CCOCC1)[C@@H]1C[C@H](CCc2ccccc2)CCN1", "note": "(racemic) [Compound 37, (2,4-cis)-N-(3-Morpholinopropyl)-4-phenethylpiperidine-2-carboxamide]", "values": [
      {"measurement": "5-HT2CR positive allosteric modulator activity (in words)", "setting": "[1]", "result": "did produce PAM effects"}
    ]},
    {"smiles": "O=C(NC(CO)C(O)c1ccccc1)C1C[C@@H](c2ccccc2)CCN1", "note": "(stereo in doubt) [Compound (2R,4S)-11, (2S,4S)-N-((1S,2S)-1,3-Dihydroxy-1-phenylpropan-2-yl)-4-phenylpiperidine-2-carboxamide]", "values": [
      {"measurement": "5-HT2CR positive allosteric modulator activity (in words)", "setting": "[1]", "result": "modest allosteric activity"}
    ]},
    {"smiles": "CCCCCCCCCCC[C@@H]1CCN[C@H](C(=O)N[C@@H]([C@H]2O[C@H](SC)[C@H](O)[C@@H](O)[C@H]2O)[C@H](C)Cl)C1.Cl", "note": "[Compound 1]", "values": [
      {"measurement": "shift of the 5-HT-evoked Cai2+ response curve", "setting": "[2]; titration studies", "result": "evoked a leftward shift"}
    ]},
    {"smiles": "CCCCCCCCCCC[C@@H]1CCN[C@H](C(=O)NCC(O)CO)C1", "note": "(stereo partly drawn) [Compound 3]", "values": [
      {"measurement": "Emax RFU (% 5-HT)", "setting": "[2]; compound 1 nM, 5-HT-induced Cai2+ release, h5-HT2CR-CHO cells", "result": "123.2 ± 4.1", "unit": "% 5-HT"},
      {"measurement": "effect on Cai2+ release in the absence of 5-HT", "setting": "[2]; h5-HT2CR-CHO cells", "result": "no effect on Cai^2+ release"},
      {"measurement": "inhibition of radioligand binding", "setting": "D3", "result": 71.7, "unit": "%"},
      {"measurement": "inhibition of radioligand binding", "setting": "DAT", "result": 66.3, "unit": "%"},
      {"measurement": "inhibition of radioligand binding", "setting": "α 2A", "result": 85.1, "unit": "%"},
      {"measurement": "inhibition of radioligand binding", "setting": "α 2B", "result": 80.7, "unit": "%"},
      {"measurement": "effect on locomotor activity", "setting": "rats [3]", "result": "decrease locomotor activity"},
      {"measurement": "effect on cocaine-seeking during abstinence from cocaine self-administration", "setting": "rats [4]", "result": "suppress cocaine-seeking"}
    ]},
    {"smiles": "Cc1cc2c(cc1Cl)N(C(=O)Nc1ccc(Oc3cccnc3C)nc1)CC2.Cl.Cl", "note": "[SB242084, 6-chloro-5-methyl-1-[[2-(2-methylpyrid-3-yloxy)pyrid-5-yl]carbamoyl]indoline dihydrochloride, reference compound]", "values": [
      {"measurement": "blockade of substitution of 12 (2 mg/kg) plus WAY163909 (0.5 mg/kg)", "setting": "male Sprague–Dawley rats [5]; SB242084 0.5 mg/kg pretreatment, 13/13 rats", "result": "completely prevented the substitution"}
    ]},
    {"smiles": "c1cc2c3c(c1)[C@H]1CCC[C@H]1N3CCNC2", "note": "[WAY163909, (7b-R,10a-R)-1,2,3,4,8,9,10,10a-octahydro-7bH-cyclopenta[b][1,4] diazepino[6,7,1hi]indole, reference compound]", "values": [
      {"measurement": "percentage of rats selecting the WAY163909-associated lever", "setting": "male Sprague–Dawley rats [5]; WAY163909 0.125 mg/kg ip, substitution test, n = 13", "result": 0, "unit": "%"},
      {"measurement": "dose predicted to result in 50% drug-associated responses (ED50)", "setting": "male Sprague–Dawley rats [6]", "result": 0.53, "unit": "mg/kg"}
    ]}
  ]
}
